Reference: US9469650B2, “Melampomagnolide B derivatives” (BOARD OF TRUSTEES OF THE UNIVERSITY OF ARKANSAS, priority 2013, dated 2016)
Like-named read-outs stand apart in the source and are kept apart here.

Assays:
[1] = test system: HL-60(TB)
[2] = test system: K-562; assay: panel of 60 human tumor cell lines, growth inhibition (Leukemia); details: K-562
[3] = test system: MOLT-4; assay: as above; details: MOLT-4
[4] = test system: SR; assay: as above
[5] = test system: LOX IMVI; assay: panel of 60 human tumor cell lines, growth inhibition (Melanoma)
[6] = test system: M14; assay: as above; details: M14
[7] = test system: SK-MEL-28; assay: as above; details: SK-MEL-28
[8] = test system: SF-268; assay: panel of 60 human tumor cell lines, growth inhibition (CNS Cancer); details: SF-268
[9] = test system: SF-295; assay: as above; details: SF-295
[10] = test system: SNB-19; assay: as above; details: SNB-19
[11] = test system: SNB-75; assay: as above; details: SNB-75
[12] = test system: HCC-2998; assay: panel of 60 human tumor cell lines, growth inhibition (Colon Cancer); details: HCC-2998
[13] = test system: SW-620; assay: as above; details: SW-620
[14] = test system: ACHN; assay: panel of 60 human tumor cell lines, growth inhibition (Renal Cancer)
[15] = test system: CAKI-1; assay: as above; details: CAKI-1
[16] = test system: UO-31; assay: as above; details: UO-31
[17] = test system: HS 578T; assay: panel of 60 human tumor cell lines, growth inhibition (Breast Cancer); details: HS 578T
[18] = test system: T-47D; assay: as above; details: T-47D
[19] = test system: NCI-H226; assay: panel of 60 human tumor cell lines, growth inhibition (Non-Small Cell Lung Cancer); details: NCI-H226

## C=C1C(=O)O[C@H]2[C@H]1CC/C(COC(=O)NC)=C\CC[C@@]1(C)O[C@@H]21 [JVM 2-57]
[1]; Log10 Concentration −4.0
  Percent Growth: −55%
[1]; Log10 Concentration −5.0
  Percent Growth: −11%
[1]; Log10 Concentration −6.0
  Percent Growth: 84%
[1]; Log10 Concentration −7.0
  Percent Growth: 91%
[1]; Log10 Concentration −8.0
  Percent Growth: 96%
[1]; NCI five dose
  GI50: 2.28 µM
  TGI: 7.73E−6
[1]; read-out: LC50, NCI five dose
  CC50: 77.2 µM
[2]; Log10 Concentration −4.0
  Percent Growth: −16%
[2]; Log10 Concentration −5.0
  Percent Growth: 16%
[2]; Log10 Concentration −6.0
  Percent Growth: 92%
[2]; Log10 Concentration −7.0
  Percent Growth: 92%
[2]; Log10 Concentration −8.0
  Percent Growth: 99%
[2]; NCI five dose
  GI50: 3.58 µM
  TGI: 3.20E−5
[3]; Log10 Concentration −4.0
  Percent Growth: −39%
[3]; Log10 Concentration −5.0
  Percent Growth: 8%
[3]; Log10 Concentration −6.0
  Percent Growth: 98%
[3]; Log10 Concentration −7.0
  Percent Growth: 90%
[3]; Log10 Concentration −8.0
  Percent Growth: 97%
[3]; NCI five dose
  GI50: 3.4 µM
  TGI: 1.49E−5
[4]; Log10 Concentration −4.0
  Percent Growth: −45%
[4]; Log10 Concentration −5.0
  Percent Growth: 4%
[4]; Log10 Concentration −6.0
  Percent Growth: 77%
[4]; Log10 Concentration −7.0
  Percent Growth: 96%
[4]; Log10 Concentration −8.0
  Percent Growth: 101%
[4]; NCI five dose
  GI50: 2.33 µM
  TGI: 1.21E−5
[5]; Log10 Concentration −4.0
  Percent Growth: −91%
[5]; Log10 Concentration −5.0
  Percent Growth: 21%
[5]; Log10 Concentration −6.0
  Percent Growth: 92%
[5]; Log10 Concentration −7.0
  Percent Growth: 95%
[5]; Log10 Concentration −8.0
  Percent Growth: 96%
[5]; NCI five dose
  GI50: 3.92 µM
  TGI: 1.55E−5
[6]; Log10 Concentration −4.0
  Percent Growth: −66%
[6]; Log10 Concentration −5.0
  Percent Growth: 27%
[6]; Log10 Concentration −6.0
  Percent Growth: 87%
[6]; Log10 Concentration −7.0
  Percent Growth: 89%
[6]; Log10 Concentration −8.0
  Percent Growth: 99%
[6]; NCI five dose
  GI50: 4.1 µM
  TGI: 1.93E−5
[7]; Log10 Concentration −4.0
  Percent Growth: −79%
[7]; Log10 Concentration −5.0
  Percent Growth: 24%
[7]; Log10 Concentration −6.0
  Percent Growth: 91%
[7]; Log10 Concentration −7.0
  Percent Growth: 91%
[7]; Log10 Concentration −8.0
  Percent Growth: 98%
[7]; NCI five dose
  GI50: 4.11 µM
  TGI: 1.72E−5
[8]; Log10 Concentration −4.0
  Percent Growth: −73%
[8]; Log10 Concentration −5.0
  Percent Growth: 66%
[8]; Log10 Concentration −6.0
  Percent Growth: 92%
[8]; Log10 Concentration −7.0
  Percent Growth: 90%
[8]; Log10 Concentration −8.0
  Percent Growth: 92%
[8]; NCI five dose
  GI50: 13 µM
  TGI: 2.98E−5
[9]; Log10 Concentration −4.0
  Percent Growth: −30%
[9]; Log10 Concentration −5.0
  Percent Growth: 76%
[9]; Log10 Concentration −6.0
  Percent Growth: 93%
[9]; Log10 Concentration −7.0
  Percent Growth: 90%
[9]; Log10 Concentration −8.0
  Percent Growth: 97%
[9]; NCI five dose
  GI50: 17.5 µM
  TGI: 5.21E−5
[10]; Log10 Concentration −4.0
  Percent Growth: −38%
[10]; Log10 Concentration −5.0
  Percent Growth: 74%
[10]; Log10 Concentration −6.0
  Percent Growth: 92%
[10]; Log10 Concentration −7.0
  Percent Growth: 95%
[10]; Log10 Concentration −8.0
  Percent Growth: 94%
[10]; NCI five dose
  GI50: 16.4 µM
  TGI: 4.59E−5
[11]; Log10 Concentration −4.0
  Percent Growth: −41%
[11]; Log10 Concentration −5.0
  Percent Growth: 55%
[11]; Log10 Concentration −6.0
  Percent Growth: 78%
[11]; Log10 Concentration −7.0
  Percent Growth: 76%
[11]; Log10 Concentration −8.0
  Percent Growth: 83%
[11]; NCI five dose
  GI50: 11.2 µM
  TGI: 3.72E−5
[12]; Log10 Concentration −4.0
  Percent Growth: −81%
[12]; Log10 Concentration −5.0
  Percent Growth: 65%
[12]; Log10 Concentration −6.0
  Percent Growth: 107%
[12]; Log10 Concentration −7.0
  Percent Growth: 91%
[12]; Log10 Concentration −8.0
  Percent Growth: 94%
[12]; NCI five dose
  GI50: 12.7 µM
  TGI: 2.80E−5
[13]; Log10 Concentration −4.0
  Percent Growth: −80%
[13]; Log10 Concentration −5.0
  Percent Growth: 6%
[13]; Log10 Concentration −6.0
  Percent Growth: 65%
[13]; Log10 Concentration −7.0
  Percent Growth: 99%
[13]; Log10 Concentration −8.0
  Percent Growth: 98%
[13]; NCI five dose
  GI50: 1.8 µM
  TGI: 1.16E−5
[14]; Log10 Concentration −4.0
  Percent Growth: −83%
[14]; Log10 Concentration −5.0
  Percent Growth: 7%
[14]; Log10 Concentration −6.0
  Percent Growth: 84%
[14]; Log10 Concentration −7.0
  Percent Growth: 93%
[14]; Log10 Concentration −8.0
  Percent Growth: 98%
[14]; NCI five dose
  GI50: 2.78 µM
  TGI: 1.19E−5
[15]; Log10 Concentration −4.0
  Percent Growth: −97%
[15]; Log10 Concentration −5.0
  Percent Growth: 10%
[15]; Log10 Concentration −6.0
  Percent Growth: 82%
[15]; Log10 Concentration −7.0
  Percent Growth: 89%
[15]; Log10 Concentration −8.0
  Percent Growth: 96%
[15]; NCI five dose
  GI50: 2.78 µM
  TGI: 1.25E−5
[16]; Log10 Concentration −4.0
  Percent Growth: −93%
[16]; Log10 Concentration −5.0
  Percent Growth: 7%
[16]; Log10 Concentration −6.0
  Percent Growth: 82%
[16]; Log10 Concentration −7.0
  Percent Growth: 88%
[16]; Log10 Concentration −8.0
  Percent Growth: 84%
[16]; NCI five dose
  GI50: 2.63 µM
  TGI: 1.16E−5
[17]; Log10 Concentration −4.0
  Percent Growth: 7%
[17]; Log10 Concentration −5.0
  Percent Growth: 65%
[17]; Log10 Concentration −6.0
  Percent Growth: 87%
[17]; Log10 Concentration −7.0
  Percent Growth: 92%
[17]; Log10 Concentration −8.0
  Percent Growth: 91%
[17]; NCI five dose
  GI50: 18.4 µM
  TGI: >1.00E−4
[18]; Log10 Concentration −4.0
  Percent Growth: −80%
[18]; Log10 Concentration −5.0
  Percent Growth: −4%
[18]; Log10 Concentration −6.0
  Percent Growth: 81%
[18]; Log10 Concentration −7.0
  Percent Growth: 86%
[18]; Log10 Concentration −8.0
  Percent Growth: 94%
[18]; NCI five dose
  GI50: 2.32 µM
  TGI: 9.04E−6
[19]; Log10 Concentration −4.0
  Percent Growth: −52%
[19]; Log10 Concentration −5.0
  Percent Growth: 49%
[19]; Log10 Concentration −6.0
  Percent Growth: 86%
[19]; Log10 Concentration −7.0
  Percent Growth: 101%
[19]; Log10 Concentration −8.0
  Percent Growth: 92%
[19]; NCI five dose
  GI50: 9.29 µM
  TGI: 3.06E−5
